Where “and” joins values, the source holds several entries; their conditions need not be identical. Equal values may be shown once. Read-outs that look alike come from different tables or passages of the source.
Columns and labels:
RPMI-8226 cells = assay: Anti-proliferation assay (ATPLite, 72 h), RPMI-8226; assay type: cell-based
[1] = test system: mantle cell lymphoma cell line Mino; assay: Anti-proliferation assay (ATPLite, 72 h), Mino; assay type: cell-based, human
Method: (§1) All of the cell lines were cultured in RPMI-1640 media supplemented with 10% FBS except OCI Ly10 cells (IMDM media supplemented with 20% human serum). The ANBL-6 cell line culture media also contained 10 ng/ml IL-6. MM.1S, MM.1R, SU-DHL6, Karpas 422, and OCI ly10 cells were provided by the Dana Farber Cancer Institute. ANBL-6 cells were provided by Bob Orlowsli (M.D. Anderson Cancer Research Center). H929, RPMI-8226, GA-10, Farage, Mino, JVM-13, Pfeiffer, Toledo, and Kusami-1 cells were from ATCC (Cat #'s CCL-155, CRL-9068, CRL-2392 CRL-2630, CRL-3000, CRL-3003, CRL-2632, CRL-2631, and CRL-2724 respectively). MOLP-8, OPM2, EJM, and KSM-12-PE cells were from DSMZ.
(§2) Compounds were prepared in DMSO at 1000× the highest desired concentration. Master plates were generated consisting of serially diluted compounds in 2- or 3-fold dilutions in 384-well format. For single agent dose response curves, the master plates consisted of 9 individual compounds at 12 concentrations in 2- or 3-fold dilutions. For combination matrices, master plates consisted of individual compounds at 6 or 9 concentrations at 2- or 3-fold dilutions.
(§3) The average untreated well value (avg. untreated wells) is the arithmetic mean of 40 wells from the same assay plate treated with vehicle alone. Negative inhibition values result from local variations in treated wells as compared to untreated wells.
(§4) The uncertainty of each fitted parameter was estimated from the range over which the change in reduced chi-squared was less than one, or less than minimum reduced chi-squared if that minimum exceeded one, to allow for underestimated σI errors.
(§5) Single agent curve data were used to define a dilution series for each compound to, be used for combination screening in a 6×6 matrix format. […] For compounds with no detectable single agent activity, a dilution factor of 4 was used, starting from the highest achievable concentration.
(§6) The Loewe additivity model was used to quantify combination effects. Combinations were ranked initially by Additivity Excess Volume, which is defined as ADD Volume=ΣCX, CY(Idata−ILoewe). where ILoewe(CX,CY) is the inhibition that satisfies (CX/ECX)+(CY/ECY)=1, and ECX,Y are the effective concentrations at ILoewe for the single agent curves. A “Synergy Score” was also used, where the Synergy Score S=log fX log fY ΣIdata (Idata−ILoewe), summed over all non-single-agent concentration pairs, and where log fX,Y is the natural logarithm of the dilution factors used for each single agent.

[2] = test system: GA-10 (Burkitt's lymphoma) cells; assay: Anti-proliferation assay (ATPLite, 72 h), GA-10; assay type: cell-based; conditions: x dexamethasone
[3] = test system: Farage (non-Hodgkin's B cell lymphoma) cells; assay: Anti-proliferation assay (ATPLite, 72 h), Farage; assay type: cell-based; conditions: x dexamethasone
MM.1S cells = assay: Anti-proliferation assay (ATPLite, 72 h), MM.1S; conditions: for IC50: 2-fold dilutions; for synergy score: in combination with CGS-21680, MM.1S
[4] = test system: mantle cell lymphoma cell line JVM-13; assay: Anti-proliferation assay (ATPLite, 72 h), JVM-13; assay type: cell-based, human
Method: as §1, §2, §3, §4, §5, §6

H929 cells = assay: Anti-proliferation assay (ATPLite, 72 h), H929; assay type: cell-based
OPM2 cells = assay: Anti-proliferation assay (ATPLite, 72 h), OPM2; assay type: cell-based, human; conditions: for synergy score: in combination with CGS-21680, OPM-8
EJM cells = assay: Anti-proliferation assay (ATPLite, 72 h), EJM; assay type: cell-based; conditions: in combination with CGS-21680
MOLP-8 cells = assay: Anti-proliferation assay (ATPLite, 72 h), MOLP-8; assay type: cell-based; conditions: in combination with CGS-21680
Karpas 422 DLBCL cells = assay: Anti-proliferation assay (ATPLite, 72 h), Karpas 422; assay type: cell-based; conditions: in combination with CGS-21680
KSM-12-PE cells = assay: Anti-proliferation assay (ATPLite, 72 h), KSM-12-PE; assay type: cell-based; conditions: in combination with CGS-21680; KSM-12-PE
ANBL-6 cells = assay: Anti-proliferation assay (ATPLite, 72 h), ANBL-6; assay type: cell-based; conditions: in combination with CGS-21680
OCI-ly10 DLBCL cells = assay: Anti-proliferation assay (ATPLite, 72 h), OCI-ly10; assay type: cell-based; conditions: in combination with CGS-21680
SU-DHL6 DLBCL cells = assay: Anti-proliferation assay (ATPLite, 72 h), SU-DHL6; assay type: cell-based; conditions: in combination with CGS-21680
[5] = combination with dexamethasone, Loewe-based Synergy Score, 72 h
[6] = Homo sapiens, MM1.S, read-out: percent inhibition of cell proliferation

## CCCCC#Cc1nc(N)c2ncn([C@@H]3O[C@H](C(=O)NCC)[C@@H](O)[C@H]3O)c2n1 [HE-NECA, hexynyladenosine-5′-N-ethylcarboxamide]
RPMI-8226 cells
  Synergy score with dexamethasone, RPMI-8226: 17.7
[1]; HE-NECA 2.5 nM alone
  percent inhibition of cell proliferation: 7.9% and 4.1%
[1]; HE-NECA 5 nM alone
  percent inhibition of cell proliferation: 12%
[1]; HE-NECA 10 nM alone
  percent inhibition of cell proliferation: 10% and 4.7%
[2]
  synergy score: 1.64
[3]
  synergy score: 3.6
MM.1S cells
  Synergy score with dexamethasone, MM.1S: 8.94
  percent inhibition of cell proliferation: 46% and 31%
MM.1S cells; HE-NECA 0.181 nM alone
  percent inhibition of cell proliferation: −0.91%
MM.1S cells; HE-NECA 0.363 nM alone
  percent inhibition of cell proliferation: 9.2%
MM.1S cells; HE-NECA 0.725 nM alone
  percent inhibition of cell proliferation: 11%
MM.1S cells; HE-NECA 2.9 nM alone
  percent inhibition of cell proliferation: 35%
MM.1S cells; HE-NECA 5.8 nM alone
  percent inhibition of cell proliferation: 42%
MM.1S cells; HE-NECA 23.2 nM alone
  percent inhibition of cell proliferation: 51%
MM.1S cells; RPMI-8226, H929, MM.1S and MM.1R MM cell lines
  activity and synergy in antiproliferation assays: active and synergistic
MM.1S cells; read-out: IC50 (+IL-6), MM.1S cells grown in presence of 10 ng/ml IL-6
  IC50: 0.88 nM
MM.1S cells; read-out: IC50 (no IL-6), MM.1S cells grown in absence of IL-6
  IC50: 6.5 nM
[4]; HE-NECA 2.5 nM alone
  percent inhibition of cell proliferation: −0.9%
[4]; HE-NECA 5 nM alone
  percent inhibition of cell proliferation: −1.5%
[4]; HE-NECA 10 nM alone
  percent inhibition of cell proliferation: 2.1%
[4]; HE-NECA 20 nM alone
  percent inhibition of cell proliferation: −9.7%
H929 cells
  Synergy score with dexamethasone, H929: 7.62
OPM2 cells; HE-NECA 2.5 nM alone
  percent inhibition of cell proliferation: 1%
OPM2 cells; HE-NECA 5 nM alone
  percent inhibition of cell proliferation: 2.6%
OPM2 cells; HE-NECA 10 nM alone
  percent inhibition of cell proliferation: 0.4%
OPM2 cells; HE-NECA 20 nM alone
  percent inhibition of cell proliferation: 4.8%

## COc1cc2c(cc1OC)-c1cc(=Nc3c(C)cc(C)cc3C)n(C)c(=O)n1CC2 [Trequinsin, 2,3,6,7-tetrahydro-9,10-dimethoxy-3-methyl-2-((2,4,6-trimethylphenyl)imino)-4H-pyrimido(6,1-a)isoquinolin-4-one]
EJM cells
  synergy score: 4.81
MOLP-8 cells
  synergy score: 4.7
RPMI-8226 cells; [5]
  Synergy score with dexamethasone, RPMI-8226: 5.76
Karpas 422 DLBCL cells
  synergy score: 2.11
KSM-12-PE cells
  synergy score: 2.44
ANBL-6 cells
  synergy score: 4.55
MM.1S cells; [6]
  inhibition at 0.00462 µM: 10%
  inhibition at 0.0139 µM: 1.4%
  inhibition at 0.0416 µM: 5.5%
  inhibition at 0.374 µM: -1.6%
  inhibition at 1.12 µM: -6.1%
  inhibition at 3.37 µM: 11%
  inhibition at 10.1 µM: 33%
MM.1S cells; [5]
  Synergy score with dexamethasone, MM.1S: 3.21
MM.1S cells
  synergy score: 6.71
H929 cells; [5]
  Synergy score with dexamethasone, H929: 2.68
OCI-ly10 DLBCL cells
  synergy score: 1.64
OPM2 cells
  synergy score: 4.74
SU-DHL6 DLBCL cells
  synergy score: 0.92

## O=C(Nc1c(Cl)cncc1Cl)c1ccc(OC(F)F)c(OCC2CC2)c1 [roflumilast]
EJM cells
  synergy score: 1.06
MOLP-8 cells
  synergy score: 3.44
Karpas 422 DLBCL cells
  synergy score: 3.38
KSM-12-PE cells
  synergy score: 0.27
ANBL-6 cells
  synergy score: 3.73
MM.1S cells
  synergy score: 2.54
OCI-ly10 DLBCL cells
  synergy score: 3.32
OPM2 cells
  synergy score: 0.29
SU-DHL6 DLBCL cells
  synergy score: 0.93
